Experiments:
CDK2/CycE = CDK2/CycE (Homo sapiens (Human), UniProt P24941); experiment: CDK2/CycE kinase assay (TR-FRET); format: biochemical; details: Method 2
Description: 2. CDK2/CycE Kinase Assay:
CDK2/CycE—inhibitory activity of compounds of the present invention was quantified employing the CDK2/CycE TR-FRET assay as described in the following paragraphs:
Recombinant fusion proteins of GST and human CDK2 and of GST and human CycE, expressed in insect cells (Sf9) and purified by Glutathion-Sepharose affinity chromatography, were purchased from ProQinase GmbH (Freiburg, Germany). As substrate for the kinase reaction biotinylated peptide biotin-Ttds-[…]

CDK9/CycT1 = CDK9/CycT1 (Homo sapiens (Human), UniProt P50750); experiment: CDK9/CycT1 kinase assay (TR-FRET); format: biochemical; details: Method 1
Sequence of CDK9/CycT1 (P50750 whole entry): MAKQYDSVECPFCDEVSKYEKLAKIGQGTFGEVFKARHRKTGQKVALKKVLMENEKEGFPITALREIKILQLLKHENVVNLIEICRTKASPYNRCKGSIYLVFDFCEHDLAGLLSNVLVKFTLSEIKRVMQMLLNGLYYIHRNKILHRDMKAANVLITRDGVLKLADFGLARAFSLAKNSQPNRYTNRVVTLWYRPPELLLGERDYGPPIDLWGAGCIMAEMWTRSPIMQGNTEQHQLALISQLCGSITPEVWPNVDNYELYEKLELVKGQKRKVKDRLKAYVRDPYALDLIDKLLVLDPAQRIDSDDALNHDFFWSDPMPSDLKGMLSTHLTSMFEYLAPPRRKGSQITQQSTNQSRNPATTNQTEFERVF
Sequence of CDK9/CycT1 (O60563 whole entry partner): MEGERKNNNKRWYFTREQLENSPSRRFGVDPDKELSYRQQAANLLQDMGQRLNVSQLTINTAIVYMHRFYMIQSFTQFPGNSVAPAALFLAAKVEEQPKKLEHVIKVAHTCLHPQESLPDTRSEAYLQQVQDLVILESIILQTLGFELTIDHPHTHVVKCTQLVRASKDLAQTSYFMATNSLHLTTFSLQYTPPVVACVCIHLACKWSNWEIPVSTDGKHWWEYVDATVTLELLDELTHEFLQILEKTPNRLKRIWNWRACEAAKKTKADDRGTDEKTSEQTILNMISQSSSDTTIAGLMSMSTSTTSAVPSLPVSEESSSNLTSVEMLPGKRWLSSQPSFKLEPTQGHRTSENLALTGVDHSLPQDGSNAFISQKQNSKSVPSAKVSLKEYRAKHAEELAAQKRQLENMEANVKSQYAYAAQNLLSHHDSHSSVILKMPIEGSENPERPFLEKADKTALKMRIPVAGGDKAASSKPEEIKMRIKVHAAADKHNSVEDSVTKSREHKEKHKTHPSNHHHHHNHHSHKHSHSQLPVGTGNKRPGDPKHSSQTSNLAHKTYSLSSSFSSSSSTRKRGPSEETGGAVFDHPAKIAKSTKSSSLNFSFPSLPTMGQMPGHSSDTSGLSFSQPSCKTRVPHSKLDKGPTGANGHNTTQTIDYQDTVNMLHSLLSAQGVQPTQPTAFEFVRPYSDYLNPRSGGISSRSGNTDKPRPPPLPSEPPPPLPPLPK
Description: 1. CDK9/CycT1 Kinase Assay:
CDK9/CycT1—inhibitory activity of compounds of the present invention was quantified employing the CDK9/CycT1 TR-FRET assay as described in the following paragraphs:
Recombinant full-length His-tagged human CDK9 and CycT1, expressed in insect cells and purified by Ni-NTA affinity chromatography, were purchased from Invitrogen (Cat. No PV4131). As substrate for the kinase reaction biotinylated peptide biotin-Ttds-[…]

[1] = unit cell empty (table: nM or μM)

Structure (SMILES)	IC50 (CDK2/CycE; [1]) [nM]	IC50 (CDK9/CycT1; [1]) [nM]	IC50 (CDK2/CycE) [nM]	IC50 (CDK9/CycT1) [nM]
COc1ccccc1-c1ncnc(Nc2cccc(CS(C)(=N)=O)c2)n1 (single isomer, unassigned) [Example 28, 4-(2-Methoxyphenyl)-N-{3-[(S-methylsulfonimidoyl)methyl]phenyl}-1,3,5-triazin-2-amine]			5900	89
CS(=N)(=O)Cc1cccc(Nc2ncnc(-c3cccc4c3OC(F)(F)O4)n2)c1 (racemic) [Example 19, (rac)-4-(2,2-Difluoro-1,3-benzodioxol-4-yl)-N-{3-[(S-methylsulfonimidoyl)methyl]phenyl}-1,3,5-triazin-2-amine]			2100	59
CS(=N)(=O)Cc1cccc(Nc2ncnc(-c3ccc(F)cc3OCCC3CCOCC3)n2)c1 (racemic) [Example 57, (rac)-4-{4-Fluoro-2-[2-(tetrahydro-2H-pyran-4-yl)ethoxy]phenyl}-N-{3-[(S-methylsulfonimidoyl)methyl]phenyl}-1,3,5-triazin-2-amine]			8300	370
CC(Oc1cc(F)ccc1-c1ncnc(Nc2cccc(CS(C)(=N)=O)c2)n1)C1CCCC1 (stereo not shown) [Example 63, 4-[2-(1-cyclopentylethoxy)-4-fluorophenyl]-N-{3-[(S-methylsulfonimidoyl)methyl]phenyl}-1,3,5-triazin-2-amine]				99
CCOC(=O)N=S(C)(=O)Cc1cccc(Nc2ncnc(-c3cccc4c3OC(F)(F)O4)n2)c1 (racemic) [Example 18, (rac)-Ethyl [(3-{[4-(2,2-difluoro-1,3-benzodioxol-4-yl)-1,3,5-triazin-2-yl]amino}benzyl)(methyl)oxido-λ^6-sulfanylidene]carbamate]			3900	33
CS(=N)(=O)Cc1cccc(Nc2ncnc(-c3ccc(F)cc3OCCC(F)(F)F)n2)c1 (racemic) [Example 65, (rac)-4-[4-Fluoro-2-(3,3,3-trifluoropropoxy)phenyl]-N-{3-[(S-methylsulfonimidoyl)methyl]phenyl}-1,3,5-triazin-2-amine]			6000	79
CC(Oc1cc(F)ccc1-c1ncnc(Nc2cccc(CS(C)(=N)=O)c2)n1)c1ccc(F)cc1 (stereo not shown) [Example 69, 4-{4-Fluoro-2-[1-(4-fluorophenyl)ethoxy]phenyl}-N-{3-[(S-methylsulfonimidoyl)methyl]phenyl}-1,3,5-triazin-2-amine]			3500	22
CS(=N)(=O)Cc1cccc(Nc2ncnc(-c3cccc4c3OCCO4)n2)c1 (racemic) [Example 38, (rac)-4-(2,3-Dihydro-1,4-benzodioxin-5-yl)-N-{3-[(S-methylsulfonimidoyl)methyl]phenyl}-1,3,5-triazin-2-amine]			1600	14
COc1cc(F)ccc1-c1ncnc(Nc2cccc(CS(=O)(=NC#N)C3CC3)c2)n1 (racemic) [Example 113, (rac)-[Cyclopropyl(3-{[4-(4-fluoro-2-methoxyphenyl)-1,3,5-triazin-2-yl]amino}benzyl)oxido-λ^6-sulfanylidene]cyanamide]			300	2
COc1cc(F)ccc1-c1ncnc(Nc2cc(F)c(F)c(CS(C)(=N)=O)c2)n1 (racemic) [Example 106, (rac)-N-{3,4-Difluoro-5-[(S-methylsulfonimidoyl)methyl]phenyl}-4-(4-fluoro-2-methoxyphenyl)-1,3,5-triazin-2-amine]			400	
CCOC(=O)N=S(C)(=O)Cc1cccc(Nc2ncnc(-c3ccccc3Oc3ccccc3)n2)c1 (racemic) [Example 47, (rac)-Ethyl [methyl(oxido)(3-{[4-(2-phenoxyphenyl)-1,3,5-triazin-2-yl]amino}benzyl)-λ^6-sulfanylidene]carbamate]			6500	35
CCOC(=O)N=S(C)(=O)Cc1cccc(Nc2ncnc(-c3cccc4c3OCC4)n2)c1 (racemic) [Example 33, (rac)-Ethyl [(3-{[4-(2,3-dihydro-1-benzofuran-7-yl)-1,3,5-triazin-2-yl]amino}benzyl)(methyl)oxido-λ^6-sulfanylidene]carbamate]			3100	21
CS(=N)(=O)Cc1cccc(Nc2ncnc(-c3ccc(F)cc3OCc3ccccc3)n2)c1 (racemic) [Example 6, (rac)-4-[2-(Benzyloxy)-4-fluorophenyl]-N-{3-[(S-methylsulfonimidoyl)methyl]phenyl}-1,3,5-triazin-2-amine]			220	3
[2H]c1c([2H])c([2H])c(C([2H])([2H])Oc2cc(F)ccc2-c2ncnc(Nc3cccc(CS(C)(=N)=O)c3)n2)c([2H])c1[2H] (racemic) [Example 62, (rac)-4-(4-Fluoro-2-{[(^2H5)phenyl(^2H2)methyl]oxy}phenyl)-N-{3-[(S-methylsulfonimidoyl)methyl]phenyl}-1,3,5-triazin-2-amine]			220	7
CS(=N)(=O)Cc1cccc(Nc2ncnc(-c3cccc4c3OCC4)n2)c1 (racemic) [Example 34, (rac)-4-(2,3-Dihydro-1-benzofuran-7-yl)-N-{3-[(S-methylsulfonimidoyl)methyl]phenyl}-1,3,5-triazin-2-amine]			2200	68
COc1ccccc1-c1ncnc(Nc2cccc(CS(C)(=N)=O)c2)n1 (single isomer, unassigned) [Example 27, 4-(2-Methoxyphenyl)-N-{3-[(S-methylsulfonimidoyl)methyl]phenyl}-1,3,5-triazin-2-amine]			7600	100
CS(=N)(=O)Cc1cccc(Nc2ncnc(-c3cccc4c3OCC4)n2)c1 (single isomer, unassigned) [Example 36, 4-(2,3-Dihydro-1-benzofuran-7-yl)-N-{3-[(S-methylsulfonimidoyl)methyl]phenyl}-1,3,5-triazin-2-amine]			2900	50
CCOC(=O)N=S(C)(=O)Cc1cccc(Nc2ncnc(-c3cc(F)ccc3OCC3CCOCC3)n2)c1 (racemic) [Example 46, (rac)-Ethyl {[3-({4-[5-fluoro-2-(tetrahydro-2H-pyran-4-ylmethoxy)phenyl]-1,3,5-triazin-2-yl}amino)benzyl](methyl)oxido-λ^6-sulfanylidene}carbamate]			11000	120
CCOC(=O)N=S(C)(=O)Cc1cccc(Nc2ncnc(-c3ccccc3OCc3ccc(Cl)c(Cl)c3)n2)c1 (racemic) [Example 60, (rac)-Ethyl [{3-[(4-{2-[(3,4-dichlorobenzyl)oxy]phenyl}-1,3,5-triazin-2-yl)amino]benzyl}(methyl)oxido-λ^6-sulfanylidene]carbamate]			3300	13
COc1cc(F)ccc1-c1ncnc(Nc2cc(F)cc(CS(C)(=N)=O)c2)n1 (single isomer, unassigned) [Example 53, 4-(4-Fluoro-2-methoxyphenyl)-N-{3-fluoro-5-[(S-methylsulfonimidoyl)methyl]phenyl}-1,3,5-triazin-2-amine]			540	

The next lines start with the values.

IC50 (CDK2/CycE; [1]) [nM]	IC50 (CDK9/CycT1; [1]) [nM]	IC50 (CDK2/CycE) [nM]	IC50 (CDK9/CycT1) [nM]	Structure (SMILES)
780	24			CCS(=N)(=O)Cc1cccc(Nc2ncnc(-c3ccc(F)cc3OC)n2)c1 (single isomer, unassigned) [Example 109, N-{3-[(S-ethylsulfonimidoyl)methyl]phenyl}-4-(4-fluoro-2-methoxyphenyl)-1,3,5-triazin-2-amine]
		2600	36	CN=S(C)(=O)Cc1cccc(Nc2ncnc(-c3ccc(F)cc3OC)n2)c1 (racemic) [Example 41, (rac)-N-{3-[(N,S-Dimethylsulfonimidoyl)methyl]phenyl}-4-(4-fluoro-2-methoxyphenyl)-1,3,5-triazin-2-amine]
1100	9			CCS(=N)(=O)Cc1cccc(Nc2ncnc(-c3ccc(F)cc3OC)n2)c1 (single isomer, unassigned) [Example 110, N-{3-[(S-ethylsulfonimidoyl)methyl]phenyl}-4-(4-fluoro-2-methoxyphenyl)-1,3,5-triazin-2-amine]
		13000	160	COc1cc(Cl)ccc1-c1ncnc(Nc2cccc(CS(C)(=N)=O)c2)n1 (single isomer, unassigned) [Example 14, 4-(4-Chloro-2-methoxyphenyl)-N-{3-[(S-methylsulfonimidoyl)methyl]phenyl}-1,3,5-triazin-2-amine]
		3500	56	COc1ccc(F)cc1-c1ncnc(Nc2cccc(CS(C)(=N)=O)c2)n1 (racemic) [Example 21, (rac)-4-(5-Fluoro-2-methoxyphenyl)-N-{3-[(S-methylsulfonimidoyl)methyl]phenyl}-1,3,5-triazin-2-amine]
		2200		CCOC(=O)N=S(C)(=O)Cc1cccc(Nc2ncnc(-c3ccc(F)cc3OC)n2)c1 (racemic) [Example 1, (rac)-Ethyl [(3-{[4-(4-fluoro-2-methoxyphenyl)-1,3,5-triazin-2-yl]amino}benzyl)(methyl)oxido-λ^6-sulfanylidene]carbamate]
		6800	74	COc1cc(Cl)ccc1-c1ncnc(Nc2cccc(CS(C)(=N)=O)c2)n1 (racemic) [Example 12, (rac) 4-(4-Chloro-2-methoxyphenyl)-N-{3-[(S-methylsulfonimidoyl)methyl]phenyl}-1,3,5-triazin-2-amine]
		9500	93	COc1cc(Cl)ccc1-c1ncnc(Nc2cccc(CS(C)(=N)=O)c2)n1 (single isomer, unassigned) [Example 13, 4-(4-Chloro-2-methoxyphenyl)-N-{3-[(S-methylsulfonimidoyl)methyl]phenyl}-1,3,5-triazin-2-amine]
